Columns and labels:
[1] = test system: Hq mutant and wild type granule cells; parameters: dose or concentration left out as unconfirmed; details: 24 hours
[2] = test system: primary neuronal granule cell cultures from Hq mutant mice; assay: Glutamate sensitivity of primary granule cell cultures; format: cell-based, mouse; parameters: unit of the concentration uncertain
Excerpt: Low doses of glutamate cause neuronal excitotoxicity via NMDA receptors, while higher doses of glutamate trigger intracellular oxidative stress through the release of endogenous peroxides.

[3] = test system: primary neuronal granule cell cultures from Hq mutant mice; details: 20 and 50 mM hydrogen peroxide, 5 hours, PI staining
Method: To determine if decrease in AIF levels leads to increased sensitivity to exogenous peroxides, primary neuronal granule cell cultures from Hq mutant mice were treated with increasing doses of hydrogen peroxide (0, 5, 20, 50 mM) for 5 hours and then stained with propidium iodide (PI) to identify apoptotic cells.

[4] = test system: mutant and wildtype embryonic cortical cells; details: hydrogen peroxide for 24 hours, any peroxide concentration
Method: To determine if increased peroxide sensitivity due to loss of wild-type levels of AIF is cell-specific, primary cultures of mutant and wildtype embryonic cortical cells were treated under the identical conditions used for granule cell cultures.

COc1cc([C@@H]2c3cc4c(cc3[C@@H](O[C@@H]3O[C@@H]5CO[C@@H](C)O[C@H]5[C@H](O)[C@H]3O)[C@H]3COC(=O)[C@H]23)OCO4)cc(OC)c1O [etoposide]
cell death, Hq mutant versus wild type granule cells [1]: no significant difference in cell death

N[C@@H](CCC(=O)O)C(=O)O [glutamate]
Hq mutant granule cell death ([2]; higher doses of glutamate (2000 (unit uncertain))): significant increases in Hq mutant granule cell death
cell viability, mutant versus wild type granule cells ([2]; low concentrations of glutamate (100 (unit uncertain))): Cell viability was similar

OO [hydrogen peroxide]
cell death, Hq mutant versus wild-type cultures [3]: Significantly more cell death
viability, mutant versus wild type cortical cells [4]: no difference in viability

CN[C@@H]1C[C@H]2O[C@@](C)([C@@H]1OC)n1c3ccccc3c3c4c(c5c6ccccc6n2c5c31)C(=O)NC4 [staurosporine]
cell death, Hq mutant versus wild type granule cells [1]: no significant difference in cell death
